This note sets out measurements from ChEMBL document CHEMBL5584292, “Targeted Isolation of Antiviral Labdane Diterpenes from the Bark of Neo-uvaria foetida (Annonaceae) using LC-MS/MS-Based Molecular Networking” (J Nat Prod, 2024).

The term IC50 denotes the concentration that gives 50% inhibition. By CC50 is commonly meant the concentration giving 50% cytotoxicity.

Active and inactive are the calls of the source. No cut-off for these calls is given here. Bounds are passed on as bounds.

Data set [1] deals with Zika virus. Briefly: Antiviral activity against ZIKV expressing GFP infected in African green monkey Vero E6 cells assessed as reduction in viral replication preincubated for 2 hrs followed by dilution to sub-therapeutic level and measured after 24 hrs by flow cytometric analysis. Particulars: time 26.0 hrs. The format is functional, organism-based. (In flow cytometry, cells or beads pass a laser one at a time.)

Data set [2] deals with Human coronavirus 229E. Put plainly: Antiviral activity against Human coronavirus 229E expressing luciferase reporter gene infected in Huh-7 cells assessed as reduction in viral replication at 6 uM incubated for 24 hrs by renilla luciferase based luminometer assay relative to control. It counts as functional. The arrangement: scale not given: the % may be the effect or the level left. On the technique in general: In a reporter assay the amount or activity of a reporter protein is the signal.

Data set [3] concerns Zika virus. Put plainly: Antiviral activity against ZIKV expressing GFP infected in African green monkey Vero E6 cells assessed as reduction in viral replication incubated for 24 hrs by flow cytometric analysis. The format is functional, organism-based.
The nature of data set [4]: Selectivity index, ratio of CC50 for cytotoxicity against African green monkey Vero E6 cells to IC50 for antiviral activity against ZIKV expressing GFP infected in African green monkey Vero E6 cells. The format is toxicity, cell-based. Particulars: read-out: Ratio CC50/IC50.
The nature of data set [5]: Cytotoxicity against African green monkey Vero E6 cells assessed as reduction in cell viability incubated for 48 hrs by MTS assay. The format is toxicity, cell-based, Vero C1008. Particulars: chlorocebus sabaeus. On the technique in general: Formazan colour is commonly taken as a measure of viable cells.
The nature of data set [6]: Cytotoxicity against human Huh-7 cells assessed as reduction in cell viability incubated for 48 hrs by MTS assay. It counts as toxicity, cell-based.
In a further data set the test system is Huh-7. Put plainly: Cytotoxicity against human Huh-7 cells assessed as reduction in cell viability at 3 to 400 uM incubated for 48 hrs by MTS assay. The format is toxicity, cell-based. The following applies: huh-7, 48 h, dose 3-400 µM.
For data set [7], the system named is Zika virus. Put plainly: Antiviral activity against ZIKV expressing GFP infected in African green monkey Vero E6 cells assessed as reduction in viral replication at 20 uM incubated for 24 hrs by flow cytometric analysis relative to control. It counts as functional. The arrangement: scale not given: the % may be the effect or the level left.
The nature of data set [8]: Cytotoxicity against human Huh-7 cells assessed as maximum non-toxic concentration at incubated for 48 hrs by MTS assay. It counts as toxicity, cell-based. Particulars: read-out: MNTD>90.
The test system of data set [9] is Zika virus. Put plainly: Antiviral activity against ZIKV expressing GFP infected in African green monkey Vero E6 cells assessed as reduction in viral replication preincubated for 2 hrs followed by compound wash out and measured after 22 hrs by flow cytometric analysis. The format is functional, organism-based. The following applies: time 24.0 hrs.
Data set [10] has as its system Zika virus. Put plainly: Antiviral activity against ZIKV expressing GFP infected in African green monkey Vero E6 cells assessed as reduction in viral replication preincubated for 2 hrs without compound followed by compound addition and measured after 22 hrs by flow cytometric analysis. It counts as functional, organism-based.
The subject of data set [11] is Human coronavirus 229E. Briefly: Antiviral activity against Human coronavirus 229E expressing luciferase reporter gene infected in Huh-7 cells assessed as reduction in viral replication incubated for 24 hrs by renilla luciferase based luminometer assay. It counts as functional, organism-based. Particulars: for IC50: Huh-7, 24 h.
The nature of data set [12]: Selectivity index, ratio of CC50 for cytotoxicity against human Huh-7 cells to IC50 for antiviral activity against Human coronavirus 229E expressing luciferase reporter gene infected in Huh-7 cells. The following applies: read-out: Ratio CC50/IC50. It counts as toxicity, cell-based.
Another data set relates to SARS-CoV-2. Briefly: Antiviral activity against SARS-CoV-2 infected in African green monkey Vero E6 cells assessed as reduction in viral replication incubated for 48 hrs by Alexa Fluor 488 staining based flow cytometric analysis. It counts as functional, organism-based, Severe acute respiratory syndrome coronavirus 2.
Data set [13] can be described thus: Selectivity index, ratio of CC50 for cytotoxicity against African green monkey Vero E6 cells to IC50 for antiviral activity against SARS-CoV-2 infected in African green monkey Vero E6 cells. The format is toxicity, cell-based. Particulars: read-out: Ratio CC50/IC50.
Setting [14] is: Zika virus, Vero C1008, 24 h, read-out: IC50.
The mark [15] stands for this setting: Severe acute respiratory syndrome coronavirus 2, Vero C1008, 48 h, read-out: IC50.

As to `CC(=O)OC[C@@]12CC[C@H]3C(C)(C)CCC[C@]3(C)[C@H]1C[C@@H](C1=CC(=O)OC1O)O2` (stereo not given in full), the result in the data set with Zika virus [1] was inactive. In addition, the Activity in the data set on Human coronavirus 229E [2] was 80%; with Huh-7, “Toxic”; with Zika virus [7], more than 90%; with Human coronavirus 229E [11], “Dose-Dependent Effect”. Besides, the values for the IC50 in the data set on Zika virus [3] (setting [14]), with Human coronavirus 229E [11] and in the data set on SARS-CoV-2 (vero e6) were 14.9 µM, 2.3 µM and “Not Active”, respectively. The selectivity ratio in data set [4] came to 3.8; in data set [12], 6.2. In addition, the values for the CC50 at 48 h in data set [5] and in [6] were 55.9 µM and 14 µM, respectively. Also, in [8], the MNTC at 48 h is 30 µM. Also, the result with Zika virus [9] and in the data set with Zika virus [10] was Active.

Turning to `CC1(C)CCC[C@@]2(C)[C@H]1CC[C@]1(O)COC(O)([C@@H](O)CC(=O)O)C[C@@H]12` (stereo not given in full), the IC50 result is “Not Active” in the data set on Zika virus [3] (vero e6), more than 100 µM with Human coronavirus 229E [11] and “Not Active” in the data set on SARS-CoV-2 (vero e6). For the same compound, the CC50 at 48 h in data set [5] was more than 200 µM; in data set [6] it was 223 µM. Also, the Activity entry in the data set with Huh-7 is “Toxic”.

Take `CC1(C)CCC[C@@]2(C)[C@H]1CC[C@]13CO[C@@H]4OC(=O)C=C4[C@H](C[C@@H]12)O3`: the IC50 result in the data set on Zika virus [3] (vero e6) was “Not Active”; in the data set with Human coronavirus 229E [11], 58.8 µM; in the data set on SARS-CoV-2 (setting [15]), 93.5 µM. In addition, the values for the CC50 at 48 h in data set [5] and in data set [6] were more than 200 µM and 215 µM, respectively. Besides, the Activity entry with Huh-7 was “Toxic”. Moreover, the selectivity ratio in [13] was determined as 2.1; in data set [12] it was 3.7.

On to `CC1(C)CCC[C@@]2(C)[C@H]1CC[C@]1(CO)O[C@H](C3=CC(=O)OC3O)C[C@@H]12` (stereo not given in full), for which the result in the data set on Zika virus [1] was inactive. In addition, the IC50 in the data set on Zika virus [3] (setting [14]) stood at 76 µM; in the data set with Human coronavirus 229E [11], 25.3 µM; in the data set with SARS-CoV-2 (setting [15]), 6.3 µM. For the same compound, the selectivity ratio in data set [4] worked out at 2.6; in data set [13], 3.2; in data set [12], 6.8. For the same compound, the CC50 at 48 h in data set [5] was 200 µM; in [6], 172 µM. Besides, in the data set with Huh-7, the Activity entry is “Toxic”. In addition, the result in the data set with Zika virus [9] and with Zika virus [10] was Active.

Consider `CC1(C)CCC[C@@]2(C)[C@H]1CC[C@]13COC4(CC(=O)O[C@H]4O)[C@H](C[C@@H]12)O3` (stereo not given in full), for which the IC50 result in the data set on Zika virus [3] (vero e6) is “Not Active”; with Human coronavirus 229E [11], more than 100 µM; in the data set with SARS-CoV-2 (vero e6) it was “Not Active”. In addition, the values for the CC50 at 48 h in data set [5] and in data set [6] were more than 200 µM and 435 µM, respectively. The Activity entry with Huh-7 is reported as “Non-Toxic”.

In the case of `CCC(CC)COC(=O)[C@H](C)N[P@](=O)(OC[C@H]1O[C@@](C#N)(c2ccc3c(N)ncnn23)[C@H](O)[C@@H]1O)Oc1ccccc1` [REMDESIVIR], the values for the CC50 at 48 h in data set [5] and in data set [6] were more than 100 µM and 90 µM, respectively. Also, the figures for the selectivity ratio in [13] and in data set [12] were 4 and 2250, respectively. Further, the results for the IC50 in the data set on Human coronavirus 229E [11] and with SARS-CoV-2 (setting [15]) were 0.04 µM and 25 µM, respectively.

On to `CC1(C)CCC[C@@]2(C)[C@H]1CC[C@@]1(CO)O[C@H](C3=CC(=O)OC3O)C[C@@H]12` (stereo not given in full), for which the outcome with Zika virus [1] was inactive. Besides, the IC50 is 31.9 µM with Zika virus [3] (setting [14]), 15.8 µM in the data set with Human coronavirus 229E [11] and “Not Active” in the data set with SARS-CoV-2 (vero e6). The selectivity ratio worked out at 2.8 in data set [4] and 3 in data set [12]. Moreover, the cytotoxic concentration (CC50) at 48 h amounted to 88.3 µM in data set [5] and 46.9 µM in data set [6]. The Activity result in the data set on Huh-7 is reported as “Toxic”. Also, the MNTC at 48 h in [8] stood at 6 µM. Besides, the result in the data set with Zika virus [9] and in the data set with Zika virus [10] was Active.
